Patent US8987309B2, “Compounds, pharmaceutical compositions and methods of use of 2-aryl pyridylazoles” (The Translational Genomics Research Institute, priority 2009, dated 2015)
“And” between values parts separate entries of the source, which are not always exact repeats. Equal values may be shown once.

Legend:
[1] = tested on: BxPC3 DPC-4(+/+) and BxPC3 DPC-4(−/−) cells; assay: Cytotoxicity (96-h MTT) in isogenic BxPC3 cell lines; assay type: cell-based, Human
Protocol: Cell lines and Culture Conditions. Human pancreatic cancer cell lines MiaPaCa-2 (Yunis et al., 1977), Panc-1 (Lieber et al., 1975), and BxPC3 (Tan et al., 1986) were purchased from the American Type Culture Collection (Manassas, Va.) and cultured in a humidified incubator at 37° C., 5% CO2, in RPMI 1640 medium (CellGro, Manassas, Va.) supplemented with 10% heat-inactivated bovine calf serum, 2 mM L-glutamine, 100 U/ml penicillin, and 100 µg/ml streptomycin (Invitrogen, Carlsbad, Calif.). MiaPaCa-2 (CRL-1420) is an adherent epithelial human pancreatic cancer cell line with a doubling time of approximately 40 h (Yunis et al., 1977). Panc-1 (CRL-1469) is an undifferentiated human pancreatic epithelial cell line with a doubling time of approximately 52 h (Lieber et al., 1975). The BxPC3 cell line DPC-4(−/−) and its isogenic restored wild-type DPC-4(+/+) cell line were developed and cultured as described previously (Wang et al., 2006). In brief, a DPC-4-expressing construct (pMSCVneoDPC-4) was created by amplifying full-length cDNA of DPC-4 using reverse transcriptase-PCR and subcloning into the multiple cloning site of a retroviral vector (pMSCVneo). The DPC-4-expressing construct was cotransfected into the BxPC3 DPC-4(−/−) cells using a packaging cell line, resulting in a cell line that constitutively expresses DPC-4. The expression of DPC-4 was confirmed by Western blotting (Wang et al., 2006).
(§1) Cytotoxicity Assays. Cytotoxicity assays in the mechanism of action studies were performed according to Mosmann (1983), wherein the activity of mitochondrial reductases were measured using 3-(4,5-dimethylthiozol-3-yl)-2,5-diphenyltetrozolium bromide dye. In brief, cells were seeded in 96-well plates and incubated for various times at 37° C. Inhibition of cell growth was measured by adding 3-(4,5-dimethylthiozol-3-yl)-2,5-diphenyltetrozolium bromide dye, and after an additional 4 h of incubation at 37° C., the 96-well plates were centrifuged, and the culture supernatant was removed. DMSO was added to each well to solubilize the formazan crystals, and the optical density was read at 540 nm on a Quant Spectrophotometer (BioTek Instruments, Winooski, Vt.). Cell growth inhibition data are expressed as percentage of survival compared with untreated cells. The IC50 is defined as the drug concentration required to produce 50% growth inhibition. Results are mean S.E.M. (n 3).
Mean±S.E.M., n=3. […] Mean±S.E.M., n=3. […] Mean tumor burden is shown.

[2] = molecular target: T1, PDGFRα (Homo sapiens, UniProt P16234); assay: Initial kinase screening (Amphora), PDGFRα; assay type: biochemical; conditions: 10 μM compound
T1 construct: assay run by Amphora Discovery Corporation (Durham, N.C.)
T1 sequence (P16234 24-1089, species assumed): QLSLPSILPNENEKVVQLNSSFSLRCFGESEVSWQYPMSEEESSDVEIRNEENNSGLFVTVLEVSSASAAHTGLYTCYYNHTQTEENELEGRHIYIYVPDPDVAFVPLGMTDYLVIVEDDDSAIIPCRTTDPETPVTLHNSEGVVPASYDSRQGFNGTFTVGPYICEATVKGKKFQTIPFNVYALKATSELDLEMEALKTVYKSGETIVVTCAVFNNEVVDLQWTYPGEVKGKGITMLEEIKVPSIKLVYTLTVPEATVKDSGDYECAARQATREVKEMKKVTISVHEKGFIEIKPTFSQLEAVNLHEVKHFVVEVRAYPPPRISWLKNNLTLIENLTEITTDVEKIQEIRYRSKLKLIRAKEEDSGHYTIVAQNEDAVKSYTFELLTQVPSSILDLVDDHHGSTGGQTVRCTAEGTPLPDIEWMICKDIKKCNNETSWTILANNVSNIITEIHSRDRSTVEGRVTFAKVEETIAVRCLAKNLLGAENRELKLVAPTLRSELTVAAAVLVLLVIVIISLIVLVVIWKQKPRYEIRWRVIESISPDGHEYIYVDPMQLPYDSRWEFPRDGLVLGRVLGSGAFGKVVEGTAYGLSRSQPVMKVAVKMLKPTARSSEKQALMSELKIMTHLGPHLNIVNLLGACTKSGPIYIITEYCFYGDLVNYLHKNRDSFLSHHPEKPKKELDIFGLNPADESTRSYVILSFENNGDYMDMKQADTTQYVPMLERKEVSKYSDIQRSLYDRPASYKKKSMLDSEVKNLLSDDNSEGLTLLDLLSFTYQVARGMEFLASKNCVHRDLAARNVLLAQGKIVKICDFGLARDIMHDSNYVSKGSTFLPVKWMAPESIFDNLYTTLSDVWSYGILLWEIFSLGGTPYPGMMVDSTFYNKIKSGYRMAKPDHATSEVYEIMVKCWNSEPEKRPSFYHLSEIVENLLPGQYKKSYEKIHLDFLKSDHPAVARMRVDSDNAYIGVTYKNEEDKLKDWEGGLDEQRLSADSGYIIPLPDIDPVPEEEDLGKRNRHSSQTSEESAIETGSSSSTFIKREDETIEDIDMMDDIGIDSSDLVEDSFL
Protocol: (§2) Kinase Screening. Initial kinase screening was performed by Amphora Discovery Corporation (Durham, N.C.).

[3] = molecular target: T2, PDGFRβ (Homo sapiens, UniProt P09619); assay: Initial kinase screening (Amphora), PDGFRβ; assay type: biochemical; conditions: 10 μM compound
T2 construct: assay run by Amphora Discovery Corporation (Durham, N.C.)
T2 sequence (P09619 33-1106, species assumed): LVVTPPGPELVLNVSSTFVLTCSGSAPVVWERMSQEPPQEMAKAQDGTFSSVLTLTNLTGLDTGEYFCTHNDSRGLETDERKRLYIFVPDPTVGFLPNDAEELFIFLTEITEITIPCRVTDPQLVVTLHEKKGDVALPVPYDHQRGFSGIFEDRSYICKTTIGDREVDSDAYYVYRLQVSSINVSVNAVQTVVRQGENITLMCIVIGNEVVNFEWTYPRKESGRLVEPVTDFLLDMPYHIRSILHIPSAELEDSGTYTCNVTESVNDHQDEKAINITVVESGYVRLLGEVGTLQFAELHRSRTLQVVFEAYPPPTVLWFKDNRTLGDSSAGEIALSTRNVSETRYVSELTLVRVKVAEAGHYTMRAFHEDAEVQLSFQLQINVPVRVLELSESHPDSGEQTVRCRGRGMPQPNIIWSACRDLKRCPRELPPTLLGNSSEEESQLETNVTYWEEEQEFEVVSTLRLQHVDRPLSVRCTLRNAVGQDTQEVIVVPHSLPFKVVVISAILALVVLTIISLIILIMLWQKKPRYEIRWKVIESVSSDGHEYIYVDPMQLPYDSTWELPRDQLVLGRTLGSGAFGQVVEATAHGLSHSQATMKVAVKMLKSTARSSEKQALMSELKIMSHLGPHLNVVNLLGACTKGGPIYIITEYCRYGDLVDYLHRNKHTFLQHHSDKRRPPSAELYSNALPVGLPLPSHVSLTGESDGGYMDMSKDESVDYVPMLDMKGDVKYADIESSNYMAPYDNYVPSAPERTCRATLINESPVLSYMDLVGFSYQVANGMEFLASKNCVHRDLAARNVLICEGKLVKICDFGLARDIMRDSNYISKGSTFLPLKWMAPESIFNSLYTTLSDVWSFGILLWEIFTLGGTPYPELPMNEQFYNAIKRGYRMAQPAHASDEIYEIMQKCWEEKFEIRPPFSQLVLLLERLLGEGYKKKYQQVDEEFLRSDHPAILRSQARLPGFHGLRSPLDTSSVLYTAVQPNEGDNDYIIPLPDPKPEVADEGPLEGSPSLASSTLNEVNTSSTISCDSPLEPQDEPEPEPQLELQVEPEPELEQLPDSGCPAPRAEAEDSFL
Protocol: as §2

[4] = molecular target: T3, CDK2/cyclin A (Homo sapiens, UniProt P24941); assay: Initial kinase screening (Amphora), CDK2/cyclin A; assay type: biochemical; conditions: 10 μM compound
T3 construct: assay run by Amphora Discovery Corporation (Durham, N.C.)
Protocol: as §2

[5] = tested on: 48 protein kinases; assay: Initial kinase screening (Amphora), panel of 48 protein kinases; assay type: biochemical; conditions: 10 μM compound
Protocol: as §2

[6] = Solubility (statement); assay type: physicochemical
[7] = tested on: PC3; assay: IC50 in tumor cell lines (PC3); assay type: cell-based; conditions: Table 1; prostate tumor cell line PC3
Protocol: as §1

[8] = tested on: DU145; assay: IC50 in tumor cell lines (DU145); assay type: cell-based; conditions: Table 1; prostate tumor cell line DU145
Protocol: as §1

[9] = tested on: H460; assay: IC50 in tumor cell lines (H460); assay type: cell-based; conditions: Table 1; lung tumor cell line H460
Protocol: as §1

[10] = tested on: A549; assay: IC50 in tumor cell lines (A549); assay type: cell-based; conditions: Table 1; lung tumor cell line A549
Protocol: as §1

[11] = molecular target: PIM-1 (Homo sapiens, UniProt P11309); assay: Initial kinase screening (Amphora), PIM-1; assay type: biochemical; set-up: assay run by Amphora Discovery Corporation (Durham, N.C.); conditions: 10 μM compound
PIM-1, sequence (P11309 whole entry): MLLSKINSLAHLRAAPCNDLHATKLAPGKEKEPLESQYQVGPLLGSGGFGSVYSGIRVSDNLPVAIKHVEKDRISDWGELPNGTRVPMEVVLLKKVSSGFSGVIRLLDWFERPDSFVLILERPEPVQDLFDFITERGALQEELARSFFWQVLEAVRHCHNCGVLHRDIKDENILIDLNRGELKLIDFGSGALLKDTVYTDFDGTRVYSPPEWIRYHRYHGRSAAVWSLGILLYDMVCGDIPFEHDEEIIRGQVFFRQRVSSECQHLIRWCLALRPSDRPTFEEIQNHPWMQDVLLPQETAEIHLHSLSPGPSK
Protocol: as §2

[12] = molecular target: TrkB (Homo sapiens, UniProt Q16620); assay: Initial kinase screening (Amphora), TrkB; assay type: biochemical; set-up: assay run by Amphora Discovery Corporation (Durham, N.C.); conditions: 10 μM compound
TrkB, sequence (Q16620 32-822): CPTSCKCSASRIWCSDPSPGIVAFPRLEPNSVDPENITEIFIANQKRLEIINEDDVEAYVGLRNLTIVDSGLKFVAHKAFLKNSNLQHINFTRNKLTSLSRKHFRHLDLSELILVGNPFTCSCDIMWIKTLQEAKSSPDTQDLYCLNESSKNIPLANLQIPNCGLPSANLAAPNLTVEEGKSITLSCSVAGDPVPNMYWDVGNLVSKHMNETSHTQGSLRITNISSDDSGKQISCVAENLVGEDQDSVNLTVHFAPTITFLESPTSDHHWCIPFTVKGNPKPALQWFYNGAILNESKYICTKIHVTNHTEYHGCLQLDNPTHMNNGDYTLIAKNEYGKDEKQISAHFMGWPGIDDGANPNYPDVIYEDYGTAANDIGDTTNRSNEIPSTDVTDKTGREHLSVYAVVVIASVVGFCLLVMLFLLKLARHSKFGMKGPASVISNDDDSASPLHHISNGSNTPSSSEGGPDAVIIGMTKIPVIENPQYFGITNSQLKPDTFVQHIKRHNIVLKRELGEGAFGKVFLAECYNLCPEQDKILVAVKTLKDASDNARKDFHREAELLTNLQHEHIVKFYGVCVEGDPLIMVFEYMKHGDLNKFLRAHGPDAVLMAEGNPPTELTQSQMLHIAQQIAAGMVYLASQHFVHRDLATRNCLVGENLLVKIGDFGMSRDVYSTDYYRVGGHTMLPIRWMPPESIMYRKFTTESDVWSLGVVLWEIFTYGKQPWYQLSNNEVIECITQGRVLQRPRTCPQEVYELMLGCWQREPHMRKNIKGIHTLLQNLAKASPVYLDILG
Protocol: as §2

inhibition of PDGFRα [2] [%]	inhibition of PDGFRβ [3] [%]	inhibition of CDK2/cyclin A [4] [%]	inhibition of any protein kinases (panel, in words) [5]	solubility (in words) [6]	IC50 [7] [nM]	IC50 [8] [nM]	IC50 [9] [nM]	IC50 [10] [nM]	inhibition of PIM-1 [11] [%]	inhibition of TrkB [12] [%]	SMILES	potency against BxPC3 cell lines (in words) [1]	selectivity index ([1]; ratio of the IC50 in BxPC3 DPC-4(+/+) to BxPC3 DPC-4(−/−) cells)
59	43	–	–	–	–	–	–	–	–	–	COc1ccc(-c2cnc(-c3ccccc3-c3ccccc3)o2)cc1 [DPC-026]	retained high potency	–
–	–	57	no significant (>50%) inhibition	lack of solubility	–	–	–	–	–	–	COc1ccc(-c2cnc(-c3cccc4c3-c3ccccc3C4=O)o2)cc1 [UA-62784, reference compound]	high potency	2 and 1.9
–	–	–	–	–	9.9	20	50	33	~50	~50	COc1ccc(-c2cnc(-c3ccncc3-c3ccccc3)o2)cc1 [DPC043]	retained potency	–
